Experimental data reported in ChEMBL document CHEMBL2069301, “Exploration of the structure-activity relationship of the diaryl anilide class of ligands for translocator protein--potential novel positron emitting tomography imaging agents” (Bioorg Med Chem Lett, 2012).
pKi: −log10 of the molar value.

How the values were obtained:
[1] = tested on: Rattus norvegicus; assay: Biodistribution in naive Wistar rat whole brain at 1 to 3 MBq, iv using [18F] labeled compound measured 2 mins post dose; assay type: ADME, organism-based; conditions: in vivo
[2] = Lipophilicity, log D of the compound at pH 7.4; assay type: physicochemical; conditions: buffer
[3] = biological target: Translocator protein (Rattus norvegicus, UniProt P16257); assay: Displacement of [3H]PK11195 from TSPO in Wistar rat heart incubated for 15 mins
Chain of Translocator protein (P16257 whole entry, looked up): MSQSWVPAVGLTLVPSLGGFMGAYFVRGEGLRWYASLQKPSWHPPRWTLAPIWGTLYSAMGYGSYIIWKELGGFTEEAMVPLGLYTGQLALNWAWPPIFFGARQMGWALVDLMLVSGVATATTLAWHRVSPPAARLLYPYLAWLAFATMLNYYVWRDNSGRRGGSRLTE

[4] = tested on: Rattus norvegicus; assay: Biodistribution in naive Wistar rat olfactory bulbs at 1 to 3 MBq, iv using [18F] labeled compound measured 30 mins post dose; assay type: ADME, organism-based, Olfactory bulb; conditions: in vivo, 0.5 h
[5] = tested on: Striatum; assay: Ratio of biodistribution in olfactory bulbs to striatum of in naive Wistar rat at 1 to 3 MBq, iv using [18F] labeled compound measured 30 mins post dose; assay type: ADME, organism-based; conditions: in vivo, 0.5 h
[6] = tested on: Striatum; assay: Ratio of biodistribution in striatum at 2 mins post dose to biodistribution in striatum post 30 mins in naive Wistar rat at 1 to 3 MBq, iv using [18F] labeled compound; assay type: ADME, organism-based; conditions: in vivo
[7] = tested on: Brain; assay: Stability in naive Wistar rat brain assessed as parent compound level at 1 to 3 MBq, iv using [18F] labeled compound measured 60 mins post dose; assay type: ADME, organism-based; conditions: in vivo, 1 h
[8] = Lipophilicity, log P of the compound by HPLC method; assay type: physicochemical

SMILES | Drug uptake [1] [% ID/g] | logD ([2]; read-out: logD) | pKi [3] | Drug uptake [4] [% ID/g] | Ratio [5] | Ratio [6] | Stability [7] [%] | logP [8] | logD [2]
CCC(C)N([11CH3])C(=O)c1cc2ccccc2c(-c2ccccc2Cl)n1 (centres undefined) | 0.28 |  |  |  |  |  |  |  | 
COc1ccc(OC)c(CN(C(=O)CF)c2ccccc2OC2CCCC2)c1 | 0.53 | 3.8 | 9.34 | 0.23 | 2.56 | 5.56 | 45 |  | 
COc1ccccc1CN(C(=O)CF)c1ccccc1OC1CCCC1 | 0.77 | 2.35 | 8.18 | 0.42 | 3.23 | 5.46 | 62 |  | 
COc1ccc(OC)c(CN(C(=O)CF)c2ccccc2OC(C)C)c1 |  | 2.62 | 8.42 |  |  |  |  |  | 
COc1ccc(OC)c(CN(C(=O)CF)c2cc(F)ccc2OC(C)C)c1 |  |  | 8.01 |  |  |  |  |  | 
COc1ccc(OC)c(CN(C(=O)CF)c2ccccc2Sc2ccccc2)c1 | 0.61 |  | 8.35 | 0.17 | 1.88 | 6.22 |  |  | 
COc1ccc(OC)c(CN(C(=O)CF)c2ccccc2S(=O)(=O)c2ccccc2)c1 |  |  | 5.46 |  |  |  |  |  | 
COc1ccc(OC)c(CN(C(=O)CF)c2cccc3cc(C)oc23)c1 | 0.68 |  | 8.20 | 0.35 | 3.5 | 6.3 | 80 |  | 
CC(=O)N(Cc1ccccc1OCCF)c1cccnc1Oc1ccccc1 | 0.45 | 1.69 |  | 0.4 | 3.08 | 2.85 |  |  | 
COc1ccc(OCCF)c(CN(C(C)=O)c2cccnc2Oc2ccccc2)c1 | 0.25 | 1.58 | 8.14 | 0.26 | 5.2 | 4.4 |  |  | 
COc1ccccc1CN(C(=O)CF)c1cccnc1Oc1ccccc1 | 0.55 | 1.51 | 6.90 | 0.15 | 1.36 | 4.82 |  |  | 
COc1ccccc1CN(C(=O)CF)c1cnccc1Oc1ccccc1 |  |  | 8.66 |  |  |  | 52 | 2.72 | 
COc1ccc(OC)c(CN(C(=O)CF)c2cc(F)ccc2Oc2ccccc2)c1 | 0.73 | 2.06 | 10.30 | 0.7 | 2.06 | 1.71 |  |  | 
COc1ccc(OC)c(CN(C(=O)CF)c2cncnc2Oc2ccccc2)c1 |  |  | 7.20 |  |  |  |  | 2.79 | 
COc1ncccc1CN(C(=O)CF)c1ccccc1Oc1ccccc1 | 0.66 | 2.38 |  | 0.33 | 2.54 | 3.92 |  |  | 
Cc1ccc(CN(C(=O)CF)c2ccccc2Oc2ccccc2)o1 |  | 2.19 | 7.14 |  |  |  |  |  | 
O=C(CF)N(Cc1cccs1)c1ccccc1Oc1ccccc1 |  | 1.98 | 6.79 |  |  |  |  |  | 
CC(=O)N(Cc1cccnc1OCCF)c1ccccc1Oc1ccccc1 |  | 2.6 |  |  |  |  |  |  | 
CC(=O)N(Cc1cccn(CCF)c1=O)c1ccccc1Oc1ccccc1 |  | 2.2 | 6.98 |  |  |  |  |  | 
O=C(CF)N(Cc1cccc2c1OCC2)c1ccccc1Oc1ccccc1 | 0.81 | 2.68 | 9.51 | 0.68 | 2.52 | 2.52 | 91 |  | 
COc1ncccc1CN(C(=O)CF)c1cc(F)ccc1Oc1ccccc1 | 0.84 | 2.3 | 8.45 | 0.5 | 2.78 | 4.39 | 72 |  | 
O=C(CF)N(Cc1cccc2c1OCCO2)c1ccccc1Oc1ccccc1 | 0.72 | 1.96 | 8.94 | 0.4 | 2.5 | 3.88 | 82 |  | 
O=C(CF)N(Cc1cccc2c1OCO2)c1ccccc1Oc1ccccc1 | 0.65 | 2.8 | 8.69 | 0.37 | 2.85 | 4.77 | 92 |  | 
CC1(C)Cc2cccc(CN(C(=O)CF)c3ccccc3Oc3ccccc3)c2O1 | 0.58 | 2.6 | 8.58 | 0.23 | 1.53 | 3.8 |  |  | 
COc1ccc(OC)c(CN(C(=O)CF)c2ccccc2Oc2ccccc2)c1 |  |  |  |  |  |  |  |  | 2.36
COc1ccc(OC)c(CN(C(=O)C[18F])c2ccccc2Oc2ccccc2)c1 | 0.74 |  |  |  |  |  | 91 |  | 
COc1ccc(OC)c(CN(C(C)=O)c2cc(F)ccc2Oc2ccccc2)c1 |  |  | 9.37 |  |  |  |  |  | 
CCC(C)N(C)C(=O)c1cc2ccccc2c(-c2ccccc2Cl)n1 (centres undefined) [PK-11195] |  | 3.73 |  |  |  |  |  |  | 
